How the values were obtained:
[1] = Surface pressure and surface potential isotherms and Brewster angle microscopy at the air-buffer interface; assay type: physicochemical; conditions: 35 °C; for spreading / monolayer formation on the aqueous surface: PBS
Method: (§1) The lipid species were either synthesized as described above or obtained from commercial sources (e.g. Nu-Check-Prep, Elysian, MN) and studied on their own at first. A wide range of lipid mixtures were prepared by weighing selected compounds at specific ratios and further dilution in chloroform to obtain selected concentrations. A 2 mM concentration of the corresponding mixtures was used in the surface potential and pressure measurements and a 5 mM concentration in the evaporation resistance measurements discussed herein.
The lipid mixtures dissolved in chloroform or the formulations were spread onto the air-buffer interface of either a KSV minitrough (Helsinki, Finland) or a KSV large trough which was filled with PBS buffer. Chloroform was allowed to evaporate for 3 min before starting measurements. The surface pressure was measured using a Wilhelmy plate, the surface potential was measured using a KSV surface potential sensor (Espoo, Finland) and Brewster angle microscopy images were captured using a KSV NIMA microBAM (Espoo, Finland) instrument. The films were compressed at a constant rate of 5 or 10 mm/min and the subphase temperature was kept at 35±1° C. The measurements were performed in an acrylic box under an ozone-free atmosphere to prevent undesired oxidation. An ozone-free atmosphere was generated by passing dry air through ODS-3P ozone destruct unit (Ozone solutions, Hull, Iowa) at a rate of 76 l/min within the enclosure.
The organizational behavior of FAHFA/OAHFA and wax ester mixtures were investigated by measuring surface pressure and surface potential isotherms, and, imaging the monolayer structure with a Brewster angle microscope. A phosphate buffered saline (PBS) solution was used as an in vitro model of the ocular surface and the measurements were conducted at physiological temperature (35° C.). With this model system, it is possible to accurately simulate the conditions residing on the ocular surface and the changes occurring during a blink of the eye, both in terms of surface pressure and the capabilities of the monolayer to respread over many compression-expansion cycles. Thus, the study protocol provides the essential information required for evaluating the suitability of the composition in the intended applications. More details on the study protocol can be found in the inventors' previous publications on the topic (Paananen, Ekholm et. al. in Langmuir 2019, Ocul. Surf. 2020, J. Org. Chem. 2021).

[2] = Evaporation resistance of lipid films (modified Langmuir-Schaefer desiccant cartridge method); assay type: physicochemical; conditions: lipid film on PBS, 35 °C; compressed to Mma 2-40 Å^2/molecule
Method: as §1
Evaporation resistance is a property of the lipid film residing on top or above an aqueous surface, independent of the measurement method and conditions of the measurement. […] Evaporation resistance of the lipid film can be determined, for example, by measuring the evaporative flux from the aqueous surface without the lipid layer, Jw, and with a lipid film present, Jf. […] The lipid film evaporation resistance can be expressed as a function of measured quantities as rm=Δc(1/Jf−1/Jw).
In this example, the evaporation resistance was determined according to the method originally developed by Langmuir et al. (Langmuir, I. and Schaefer, V., J. 1943, J. Franklin Inst., Vol. 235, 119-162) although with certain modifications (as set out in Bland et al., Langmuir, 2019, 35, 3545-3552 (Supp. Info.). […]

Compound | spreading / monolayer formation on the aqueous surface [1] | maximum evaporation resistance [2] [s/cm] | mean molecular area at surface pressure lift-off ([1]; pure lipid on PBS) [Å^2/molecule] | surface pressure at transition to a solid monolayer ([1]; pure lipid on PBS) [mN/m] | melting point [°C]
CCCCCCCC/C=C\CCCCCCCC(=O)OCCCCCCCCCCCCCCCCCCCCCC [BO, behenyl oleate] | did not spread on the aqueous surface but formed solid aggregates instead | – | – | – | –
CCCCCCCC/C=C\CCCCCCCC(=O)OCCCCCCCCCCCCCCCCCCCC(=O)O [Example 20-OAHFA, 20-(oleoyloxy)eicosanoic acid] | form liquid monolayers upon spreading | 3 to 5 | 140 | 2 | –
CCCCCCCC/C=C\CCCCCCCC(=O)OCCCCCCCCCCCCCCCCCCCCCCCC(C)C [Example 5, 24-methylpentacosyl oleate] | – | – | – | – | 36 to 37.5
CCCCCCCC/C=C\CCCCCCCC(=O)OCCCCCCCCCCCCCCCCCCCC [AO, arachidyl oleate] | form liquid monolayers upon spreading | – | 70 | – | –

Source: US20240226052A1, “A SPECIFIC COMBINATION OF LIPIDS AND METHODS AND USES RELATED THERETO” (HELSINGIN YLIOPISTO, priority 2021, published 2024)
